Assay results taken from the NIST ThermoML archive (doi:10.1021/je101012n).
± gives the expanded uncertainty stated by the source.

Assay: mn = molality of the nth substance listed, in mol/kg
Conditions: 101 kPa, Liquid, Alternating current cell with electrodes

O=S(=O)([O-])[O-].[Ca+2] [calcium sulfate] + O
electrical conductivity [S/m]
Conditions | 278.15 K | 283.15 K | 298.15 K | 308.15 K | 318.15 K | 343.15 K | 363.15 K
m1 = 7.6e-05 | 0.00123 ± 1e-05 | 0.001409 ± 6e-06 | 0.001963 ± 8e-06 | 0.002529 ± 1e-05 | 0.003011 ± 1.2e-05 | 0.004223 ± 1.7e-05 | 0.00536 ± 2e-05
m1 = 0.00102 | 0.01397 ± 6e-05 | 0.01601 ± 6e-05 | 0.02275 ± 9e-05 | 0.02808 ± 0.00011 | 0.0325 ± 0.0001 | 0.04537 ± 0.00018 | 0.05546 ± 0.00022
m1 = 0.01245 | 0.1154 ± 0.0005 | 0.1331 ± 0.0005 | 0.185 ± 0.0007 | 0.2255 ± 0.0009 | 0.2573 ± 0.001 | 0.3419 ± 0.0014 | 0.3973 ± 0.0016

[Cl-].[Li+] [lithium chloride] + O
electrical conductivity [S/m]
Conditions | 278.15 K | 283.15 K | 298.15 K | 308.15 K | 318.15 K | 343.15 K | 363.15 K
m1 = 8.5e-05 | 0.0005986 ± 2.4e-06 | 0.0006826 ± 2.7e-06 | 0.0009588 ± 3.8e-06 | 0.00117 ± 5e-06 | 0.001388 ± 6e-06 | 0.001978 ± 8e-06 | 0.002483 ± 1e-05
m1 = 0.000952 | 0.006496 ± 2.6e-05 | 0.007487 ± 3e-05 | 0.01069 ± 4e-05 | 0.01311 ± 5e-05 | 0.01528 ± 6e-05 | 0.02191 ± 9e-05 | 0.02774 ± 0.00011
m1 = 0.00845 | 0.05562 ± 0.00022 | 0.06414 ± 0.00026 | 0.09167 ± 0.00037 | 0.1123 ± 0.0005 | 0.1315 ± 0.0005 | 0.1886 ± 0.0008 | 0.2366 ± 0.0009
m1 = 0.09523 | 0.5516 ± 0.0022 | 0.6326 ± 0.0025 | 0.9019 ± 0.0036 | 1.099 ± 0.0044 | 1.276 ± 0.0051 | 1.809 ± 0.0072 | 2.257 ± 0.009
m1 = 0.9613 | 4.317 ± 0.017 | 4.986 ± 0.02 | 7.13 ± 0.029 | 8.35 ± 0.033 | 9.794 ± 0.039 | 12.64 ± 0.051 | 15.57 ± 0.062

O=[N+]([O-])[O-].O=[N+]([O-])[O-].O=[N+]([O-])[O-].[Al+3] [aluminum trinitrate] + O
electrical conductivity [S/m]
Conditions | 278.1 K | 283.1 K | 298.15 K | 308.15 K | 318.15 K | 343.15 K | 363.15 K
m1 = 8.8e-05 | – | – | – | – | – | 0.09049 ± 0.00036 | 0.1042 ± 0.0004
m1 = 0.000883 | 0.05671 ± 0.00023 | 0.06384 ± 0.00026 | 0.08484 ± 0.00034 | 0.09898 ± 0.0004 | 0.1135 ± 0.0005 | 0.1533 ± 0.0006 | 0.1872 ± 0.0008
m1 = 0.00871 | 0.2168 ± 0.0009 | 0.2457 ± 0.001 | 0.3424 ± 0.0014 | 0.411 ± 0.0016 | 0.4827 ± 0.0019 | 0.6932 ± 0.0028 | 0.8941 ± 0.0036
m1 = 0.0881 | 1.551 ± 0.0062 | 1.706 ± 0.0068 | 2.378 ± 0.0095 | 2.873 ± 0.011 | 3.387 ± 0.013 | 4.867 ± 0.019 | 5.923 ± 0.024
m1 = 0.158 | 2.511 ± 0.01 | 2.826 ± 0.011 | 3.913 ± 0.016 | 4.788 ± 0.019 | 5.595 ± 0.022 | 7.689 ± 0.031 | 9.698 ± 0.039

[Ba+2].[Cl-].[Cl-] [barium chloride] + O
electrical conductivity [S/m]
Conditions | 278.15 K | 283.15 K | 298.15 K | 308.15 K | 318.15 K | 343.15 K | 363.15 K
m1 = 9.2e-05 | 0.001632 ± 7e-06 | 0.00188 ± 1e-05 | 0.002597 ± 1e-05 | 0.003085 ± 1.2e-05 | 0.003626 ± 1.5e-05 | 0.005187 ± 2.1e-05 | 0.00644 ± 3e-05
m1 = 0.0011 | 0.01799 ± 7e-05 | 0.0206 ± 0.0001 | 0.02897 ± 0.00012 | 0.03508 ± 0.00014 | 0.04141 ± 0.00017 | 0.05911 ± 0.00024 | 0.07372 ± 0.00029
m1 = 0.00896 | 0.1386 ± 0.0006 | 0.1585 ± 0.0006 | 0.2229 ± 0.0009 | 0.2681 ± 0.0011 | 0.3161 ± 0.0013 | 0.4493 ± 0.0018 | 0.5593 ± 0.0022
m1 = 0.1029 | 1.366 ± 0.0055 | 1.553 ± 0.0062 | 2.167 ± 0.0087 | 2.588 ± 0.01 | 3.034 ± 0.012 | 4.247 ± 0.017 | 4.814 ± 0.019
m1 = 0.31 | 3.657 ± 0.015 | 4.127 ± 0.017 | 5.589 ± 0.022 | 6.794 ± 0.027 | 7.859 ± 0.031 | 10.32 ± 0.041 | 12.51 ± 0.05

[Cl-].[Cl-].[Mg+2] [magnesium chloride] + O
electrical conductivity [S/m]
Conditions | 278.15 K | 283.15 K | 298.15 K | 308.15 K | 318.15 K | 343.15 K | 363.15 K
m1 = 0.000119 | 0.001861 ± 7e-06 | 0.002134 ± 9e-06 | 0.002989 ± 1.2e-05 | 0.003553 ± 1.4e-05 | 0.004209 ± 1.7e-05 | 0.006086 ± 2.4e-05 | 0.00764 ± 3e-05
m1 = 0.000984 | 0.01481 ± 6e-05 | 0.017 ± 0.0001 | 0.02432 ± 0.0001 | 0.02937 ± 0.00012 | 0.03478 ± 0.00014 | 0.0501 ± 0.0002 | 0.06265 ± 0.00025
m1 = 0.01137 | 0.1537 ± 0.0006 | 0.176 ± 0.0007 | 0.2503 ± 0.001 | 0.302 ± 0.0012 | 0.3534 ± 0.0014 | 0.5068 ± 0.002 | 0.6347 ± 0.0025
m1 = 0.09942 | 1.1 ± 0.0044 | 1.256 ± 0.005 | 1.772 ± 0.0071 | 2.137 ± 0.0085 | 2.515 ± 0.01 | 3.575 ± 0.014 | 4.424 ± 0.018
m1 = 0.3609 | 3.449 ± 0.014 | 3.927 ± 0.016 | 5.491 ± 0.022 | 6.606 ± 0.026 | 7.753 ± 0.031 | 10.94 ± 0.044 | 13.6 ± 0.054

O=C([O-])[O-].[K+].[K+] [potassium carbonate] + O
electrical conductivity [S/m]
Conditions | 278.15 K | 283.15 K | 298.15 K | 308.15 K | 318.15 K | 343.15 K | 363.15 K
m1 = 0.00132 | 0.02129 ± 9e-05 | 0.02471 ± 0.0001 | 0.03642 ± 0.00015 | 0.0439 ± 0.00018 | 0.05331 ± 0.00021 | 0.07921 ± 0.00032 | 0.09755 ± 0.00039
m1 = 0.01048 | 0.1568 ± 0.0006 | 0.1809 ± 0.0007 | 0.2575 ± 0.001 | 0.3146 ± 0.0013 | 0.3758 ± 0.0015 | 0.5522 ± 0.0022 | 0.6987 ± 0.0028
m1 = 0.1319 | 1.589 ± 0.0064 | 1.815 ± 0.0073 | 2.542 ± 0.01 | 3.054 ± 0.012 | 3.59 ± 0.014 | 5.098 ± 0.02 | 6.345 ± 0.025
m1 = 0.3525 | 3.8 ± 0.015 | 4.305 ± 0.017 | 5.942 ± 0.024 | 7.115 ± 0.029 | 8.319 ± 0.033 | 11.6 ± 0.046 | 14.31 ± 0.057

O=S(=O)([O-])[O-].[Na+].[Na+] [sodium sulfate] + O
electrical conductivity [S/m]
Conditions | 278.15 K | 283.15 K | 298.15 K | 308.15 K | 318.15 K | 343.15 K | 363.15 K
m1 = 0.0001 | 0.001565 ± 6e-06 | 0.001807 ± 7e-06 | 0.002576 ± 1e-05 | 0.003181 ± 1.3e-05 | 0.003786 ± 1.5e-05 | 0.005401 ± 2.2e-05 | 0.00676 ± 3e-05
m1 = 0.001 | 0.01463 ± 6e-05 | 0.0168 ± 0.0001 | 0.02415 ± 0.0001 | 0.0292 ± 0.0001 | 0.03475 ± 0.00014 | 0.05015 ± 0.0002 | 0.0633 ± 0.00025
m1 = 0.01 | 0.1296 ± 0.0005 | 0.1488 ± 0.0006 | 0.2128 ± 0.0009 | 0.2575 ± 0.001 | 0.3049 ± 0.0012 | 0.4381 ± 0.0018 | 0.5474 ± 0.0022
m1 = 0.1001 | 1 ± 0.004 | 1.148 ± 0.0046 | 1.639 ± 0.0066 | 1.986 ± 0.0079 | 2.347 ± 0.0094 | 3.347 ± 0.013 | 4.17 ± 0.017
m1 = 0.1989 | 1.756 ± 0.007 | 2.022 ± 0.0081 | 2.882 ± 0.011 | 3.508 ± 0.014 | 4.153 ± 0.017 | 5.946 ± 0.024 | 7.43 ± 0.03
m1 = 0.4999 | 3.383 ± 0.013 | 3.854 ± 0.015 | 5.47 ± 0.022 | 6.708 ± 0.027 | 7.954 ± 0.032 | 11.39 ± 0.046 | 13.7 ± 0.055

O=S(=O)([O-])[O-].[Fe+2] [iron(II) sulfate] + O
electrical conductivity [S/m]
Conditions | 278.1 K | 283.1 K | 298.15 K | 308.15 K | 318.15 K | 343.15 K | 363.15 K
m1 = 0.00112 | 0.06212 ± 0.00025 | 0.06791 ± 0.00027 | 0.08697 ± 0.00035 | 0.09771 ± 0.00039 | 0.1075 ± 0.0004 | 0.1235 ± 0.0005 | 0.1274 ± 0.0005
m1 = 0.00212 | 0.06435 ± 0.00026 | 0.07287 ± 0.00029 | 0.09366 ± 0.00037 | 0.1063 ± 0.0004 | 0.1165 ± 0.0005 | 0.1409 ± 0.0006 | 0.1543 ± 0.0006
m1 = 0.01287 | 0.1183 ± 0.0005 | 0.1326 ± 0.0005 | 0.1784 ± 0.0007 | 0.2092 ± 0.0008 | 0.2419 ± 0.001 | 0.3214 ± 0.0013 | 0.3988 ± 0.0016
m1 = 0.1121 | 0.2469 ± 0.001 | 0.269 ± 0.0011 | 0.3516 ± 0.0014 | 0.3913 ± 0.0016 | 0.4714 ± 0.0019 | – | –
m1 = 0.2576 | 1.238 ± 0.005 | 1.415 ± 0.0057 | 1.98 ± 0.0079 | 2.303 ± 0.0092 | 2.692 ± 0.011 | 3.631 ± 0.015 | 4.11 ± 0.016

O=[N+]([O-])[O-].O=[N+]([O-])[O-].[Cu+2] [copper dinitrate] + O
electrical conductivity [S/m]
Conditions | 278.1 K | 283.1 K | 298.15 K | 308.15 K | 318.15 K | 343.15 K | 363.15 K
m1 = 0.0001 | 0.01101 ± 4e-05 | 0.01227 ± 5e-05 | – | – | – | 0.02684 ± 0.00011 | 0.0318 ± 0.0001
m1 = 0.0011 | 0.02486 ± 0.0001 | 0.02823 ± 0.00011 | 0.0388 ± 0.0002 | 0.04633 ± 0.00019 | 0.05303 ± 0.00021 | 0.07303 ± 0.00029 | 0.08992 ± 0.00036
m1 = 0.01032 | 0.1433 ± 0.0006 | 0.1641 ± 0.0007 | 0.2308 ± 0.0009 | 0.2795 ± 0.0011 | 0.3256 ± 0.0013 | 0.4628 ± 0.0019 | 0.5792 ± 0.0023
m1 = 0.1108 | 1.207 ± 0.0048 | 1.382 ± 0.0055 | 1.935 ± 0.0077 | 2.333 ± 0.0093 | 2.746 ± 0.011 | 3.918 ± 0.016 | 4.838 ± 0.019
m1 = 0.3459 | 3.219 ± 0.013 | 3.68 ± 0.015 | 5.093 ± 0.02 | 6.092 ± 0.024 | 7.235 ± 0.029 | 10.34 ± 0.041 | 12.57 ± 0.05
